# Activity calls are given as the source filed them. The rule behind the calls is not given here.
# Tests used:
# Format in all cases: nucleic-acid assay
# [1] = test system: Nucleic Acid; test: Binding affinity to DNA 3'-GCG TTA A ATT GCG-5' assessed as change in fluorescence emission at 2.5 uM by UV-Vis spectrophotometric analysis at pH 7
# [2] = test system: Nucleic Acid; test: Binding affinity to DNA 3'-GCG TTA T ATT GCG-5' assessed as change in fluorescence emission at 2.5 uM by UV-Vis spectrophotometric analysis at pH 7
# [3] = test system: Nucleic Acid; test: Binding affinity to DNA 3'-GCG TTA G ATT GCG-5' assessed as melting temperature
# [4] = test system: Nucleic Acid; test: Binding affinity to DNA 3'-GCG TTA T ATT GCG-5' assessed as melting temperature
# [5] = test system: Nucleic Acid; test: Binding affinity to DNA 3'-GCG TTA A ATT GCG-5' assessed as melting temperature
# [6] = test system: Nucleic Acid; test: Binding affinity to DNA 3'-GCG TTA C ATT GCG-5' assessed as melting temperature
# [7] = test system: Nucleic Acid; test: Binding affinity to DNA 3'-GCG TTA C ATT GCG-5' assessed as change in fluorescence emission at 2.5 uM by UV-Vis spectrophotometric analysis at pH 7
# [8] = test system: Nucleic Acid; test: Binding affinity to DNA 3'-GCG TTA G ATT GCG-5' assessed as change in fluorescence emission at 2.5 uM by UV-Vis spectrophotometric analysis at pH 7
# [9] = test system: Nucleic Acid; test: Binding affinity to DNA 3'-GCG TTA C ATT GCG-5' assessed as change in fluorescence emission at 2.5 uM by UV transilluminator analysis
# [10] = test system: Nucleic Acid; test: Binding affinity to DNA 3'-GCG TTA G ATT GCG-5' assessed as change in fluorescence emission at 2.5 uM by UV transilluminator analysis
# [11] = test system: Nucleic Acid; test: Binding affinity to DNA 3'-GCG TTA T ATT GCG-5' assessed as change in fluorescence emission at 2.5 uM by UV transilluminator analysis
# [12] = test system: Nucleic Acid; test: Binding affinity to DNA 3'-GCG TTA A ATT GCG-5' assessed as change in fluorescence emission at 2.5 uM by UV transilluminator analysis
Structure (SMILES),Activity [1],Activity [2],Tm [3],Tm [4],Tm [5],Tm [6],Activity [7],Activity [8],Activity [9],Activity [10],Activity [11],Activity [12]
COc1cc(OC)c(C#Cc2nc3c(=O)[nH]c(N)nc3n2[C@H]2C[C@H](OP(=O)(O)OC[C@H]3O[C@@H](n4cc(C)c(=O)[nH]c4=O)C[C@@H]3OP(=O)(O)OC[C@H]3O[C@@H](n4cnc5c(N)ncnc54)C[C@@H]3OP(=O)(O)OC[C@H]3O[C@@H](n4cnc5c(N)ncnc54)C[C@@H]3OP(=O)(O)OC[C@H]3O[C@@H](n4ccc(N)nc4=O)C[C@@H]3OP(=O)(O)OC[C@H]3O[C@@H](n4cnc5c(=O)[nH]c(N)nc54)C[C@@H]3OP(=O)(O)OC[C@H]3O[C@@H](n4ccc(N)nc4=O)C[C@@H]3O)[C@@H](COP(=O)(O)O[C@H]3C[C@H](n4cc(C)c(=O)[nH]c4=O)O[C@@H]3COP(=O)(O)O[C@H]3C[C@H](n4cnc5c(N)ncnc54)O[C@@H]3COP(=O)(O)O[C@H]3C[C@H](n4cnc5c(N)ncnc54)O[C@@H]3COP(=O)(O)O[C@H]3C[C@H](n4ccc(N)nc4=O)O[C@@H]3COP(=O)(O)O[C@H]3C[C@H](n4cnc5c(=O)[nH]c(N)nc54)O[C@@H]3COP(=O)(O)O[C@H]3C[C@H](n4ccc(N)nc4=O)O[C@@H]3CO)O2)c(OC)c1,Active,inactive,46.2 °C,42.8 °C,52.2 °C,45.5 °C,inactive,inactive,–,–,–,–
COc1ccc(C#Cc2nc3c(=O)[nH]c(N)nc3n2[C@H]2C[C@H](OP(=O)(O)OC[C@H]3O[C@@H](n4cc(C)c(=O)[nH]c4=O)C[C@@H]3OP(=O)(O)OC[C@H]3O[C@@H](n4cnc5c(N)ncnc54)C[C@@H]3OP(=O)(O)OC[C@H]3O[C@@H](n4cnc5c(N)ncnc54)C[C@@H]3OP(=O)(O)OC[C@H]3O[C@@H](n4ccc(N)nc4=O)C[C@@H]3OP(=O)(O)OC[C@H]3O[C@@H](n4cnc5c(=O)[nH]c(N)nc54)C[C@@H]3OP(=O)(O)OC[C@H]3O[C@@H](n4ccc(N)nc4=O)C[C@@H]3O)[C@@H](COP(=O)(O)O[C@H]3C[C@H](n4cc(C)c(=O)[nH]c4=O)O[C@@H]3COP(=O)(O)O[C@H]3C[C@H](n4cnc5c(N)ncnc54)O[C@@H]3COP(=O)(O)O[C@H]3C[C@H](n4cnc5c(N)ncnc54)O[C@@H]3COP(=O)(O)O[C@H]3C[C@H](n4ccc(N)nc4=O)O[C@@H]3COP(=O)(O)O[C@H]3C[C@H](n4cnc5c(=O)[nH]c(N)nc54)O[C@@H]3COP(=O)(O)O[C@H]3C[C@H](n4ccc(N)nc4=O)O[C@@H]3CO)O2)cc1,Active,inactive,49.8 °C,45.1 °C,49.7 °C,50.5 °C,inactive,inactive,Active,Active,Active,Active
Cc1cn([C@H]2C[C@H](OP(=O)(O)OC[C@H]3O[C@@H](n4c(C#Cc5ccccc5)nc5c(=O)[nH]c(N)nc54)C[C@@H]3OP(=O)(O)OC[C@H]3O[C@@H](n4cc(C)c(=O)[nH]c4=O)C[C@@H]3OP(=O)(O)OC[C@H]3O[C@@H](n4cnc5c(N)ncnc54)C[C@@H]3OP(=O)(O)OC[C@H]3O[C@@H](n4cnc5c(N)ncnc54)C[C@@H]3OP(=O)(O)OC[C@H]3O[C@@H](n4ccc(N)nc4=O)C[C@@H]3OP(=O)(O)OC[C@H]3O[C@@H](n4cnc5c(=O)[nH]c(N)nc54)C[C@@H]3OP(=O)(O)OC[C@H]3O[C@@H](n4ccc(N)nc4=O)C[C@@H]3O)[C@@H](COP(=O)(O)O[C@H]3C[C@H](n4cnc5c(N)ncnc54)O[C@@H]3COP(=O)(O)O[C@H]3C[C@H](n4cnc5c(N)ncnc54)O[C@@H]3COP(=O)(O)O[C@H]3C[C@H](n4ccc(N)nc4=O)O[C@@H]3COP(=O)(O)O[C@H]3C[C@H](n4cnc5c(=O)[nH]c(N)nc54)O[C@@H]3COP(=O)(O)O[C@H]3C[C@H](n4ccc(N)nc4=O)O[C@@H]3CO)O2)c(=O)[nH]c1=O,inactive,inactive,–,–,–,–,inactive,inactive,–,–,–,–
COc1ccc(C#Cc2nc3c(=O)[nH]c(N)nc3n2[C@H]2C[C@H](OP(=O)(O)OC[C@H]3O[C@@H](n4cc(C)c(=O)[nH]c4=O)C[C@@H]3OP(=O)(O)OC[C@H]3O[C@@H](n4cnc5c(N)ncnc54)C[C@@H]3OP(=O)(O)OC[C@H]3O[C@@H](n4cnc5c(N)ncnc54)C[C@@H]3OP(=O)(O)OC[C@H]3O[C@@H](n4ccc(N)nc4=O)C[C@@H]3OP(=O)(O)OC[C@H]3O[C@@H](n4cnc5c(=O)[nH]c(N)nc54)C[C@@H]3OP(=O)(O)OC[C@H]3O[C@@H](n4ccc(N)nc4=O)C[C@@H]3O)[C@@H](COP(=O)(O)O[C@H]3C[C@H](n4cc(C)c(=O)[nH]c4=O)O[C@@H]3COP(=O)(O)O[C@H]3C[C@H](n4cnc5c(N)ncnc54)O[C@@H]3COP(=O)(O)O[C@H]3C[C@H](n4cnc5c(N)ncnc54)O[C@@H]3COP(=O)(O)O[C@H]3C[C@H](n4ccc(N)nc4=O)O[C@@H]3COP(=O)(O)O[C@H]3C[C@H](n4cnc5c(=O)[nH]c(N)nc54)O[C@@H]3COP(=O)(O)O[C@H]3C[C@H](n4ccc(N)nc4=O)O[C@@H]3CO)O2)c2ccccc12,Active,inactive,49.6 °C,46.7 °C,49.2 °C,49.4 °C,inactive,inactive,–,–,–,–

# — ChEMBL document CHEMBL2057207, “Fluorometric detection of adenine in target DNA by exciplex formation with fluorescent 8-arylethynylated deoxyguanosine” (Bioorg Med Chem Lett, 2012)
